Test in all cases: NCI tumour cell line growth inhibition, 48 h
The subject of test [1] is A498 renal.
Test [2] deals with A549 NSCLC.
The subject of test [3] is CAKI-1 renal.
Test [4] relates to HL-60(TB) leukemia.
Test [5] has as its system HOP-62 NSCLC.
Test [6] has as its system M14 melanoma.
Test [7] relates to MALME-3M melanoma.
Test [8] concerns NCI-H460 lung.
For test [9], the system named is SF-268 CNS.
Test [10] relates to PC-3 prostate.

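How tested: cells in 96-well plates exposed to compound for 48 hours at five concentrations. The concentration for 50% growth inhibition is given as GI50. At the TGI there is no net growth.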 Some results are limits rather than exact numbers.

As for `Nc1ccn(CC(CO)CC(c2ccccc2)P(=O)(O)O)c(=O)n1` (stereo not given), the TGI in test [1], in test [2], in test [3], in test [4], in [5] and in [6] was greater than 100 µM throughout. The TGI in test [7], in test [8] and in test [9] was greater than 100 µM each time.
Consider `COc1ccc2cc(C(=O)/C=C/c3ccco3)ccc2c1`, for which the GI50 was 31.8 µM in [2]; 38.7 µM in test [3]; 24.6 µM in test [4]; 0.19 µM in [6]; 31 µM in [7]; 22.7 µM in test [8]. The values for the GI50 in test [10] and in [9] were 47.4 µM and 20 µM, respectively. Also, the TGI in test [2] is greater than 100 µM; in test [3] it was greater than 100 µM; in test [4], 83.3 µM; in test [6], 12.6 µM; in [7] it was greater than 100 µM; in [8], 52.6 µM. The TGI in test [10] was greater than 100 µM; in test [9] it was 45.5 µM.
Turning to `COC(=O)C(C(=O)C(=O)Nc1ccc([N+](=O)[O-])cc1)c1nc2cc(C)c(C)cc2[nH]c1=O` (stereo not given), the TGI in test [1], in test [2], in test [3], in test [4], in [5] and in test [6] was greater than 100 µM throughout. Moreover, the TGI in [7], in test [8] and in [9] was greater than 100 µM in each case.
Consider `CCOC(=O)/C(=C/c1ccc(Cl)cc1)N(CC)CC`, for which the TGI in test [1], in [2], in [3], in test [4], in test [5] and in [6] was greater than 100 µM throughout. In addition, the TGI in test [7], in test [8] and in test [9] was greater than 100 µM in each case.
Turning to `COc1ccc(N2C(=O)C3c4[nH]c5cc(Cl)ccc5c4C4CCC(C(C)(C)C)CC4C3C2=O)cc1` (stereo not given), the TGI in test [2] is greater than 100 µM; in test [4], 69.4 µM; in [5], greater than 100 µM; in test [6] it was greater than 100 µM; in test [8], greater than 100 µM; in test [10], greater than 100 µM. The compound also displayed a TGI in test [9] greater than 100 µM.
On to `CCOC(=O)NN(C(=O)OCC)C(C(=O)c1ccc(Cl)cc1)=C1NCCN1`, for which the TGI in test [1], in test [2], in test [3], in test [4], in [5] and in test [6] was greater than 100 µM throughout. For the same compound, the TGI in test [7], in test [8] and in test [9] was greater than 100 µM throughout.
Turning to `C=CCCC(O)c1ccc(CCCCCCCCCCC)o1` (stereo not given), the GI50 is 18.6 µM in [2]; 16 µM in test [3]; 39.2 µM in [4]; 17.3 µM in [5]; 17.2 µM in [6]; 15.6 µM in test [7]. Besides, the GI50 is 28.9 µM in test [8], 18.8 µM in test [10] and 19.3 µM in [9]. The TGI in [2] was 35.1 µM; in test [3], 31.5 µM; in [4], greater than 100 µM; in test [5], 32.2 µM; in [6], 32.4 µM; in test [7], 33.8 µM. For the same compound, the values for the TGI in [8], in test [10] and in [9] were greater than 100 µM, 36.6 µM and 43.9 µM, respectively.
Consider `O=C1CCCCCCCCCCC1CN(Cc1ccccc1)Cc1ccccc1` (stereo not given), for which the TGI in test [2] is greater than 100 µM; in test [4] it was 76.4 µM; in test [5], greater than 100 µM; in [6], greater than 100 µM; in [7], 75.2 µM; in test [10], greater than 100 µM. This compound also displayed a TGI in test [9] greater than 100 µM.
Take `NC(=O)OCC(COc1ccc(Cl)cc1)OC(=O)c1cc([N+](=O)[O-])cc([N+](=O)[O-])c1` (stereo not given): the TGI in test [1], in [2], in [3], in test [4], in [5] and in test [6] was greater than 100 µM each time. In addition, the TGI in [7], in test [8] and in test [9] was greater than 100 µM throughout.
With `COC(=O)C1CCC[C@H]2C(CO)=C(C)C(=O)[C@@H]12` (stereo not given in full), the TGI in test [1], in [2], in [3], in test [4], in test [5] and in test [6] was greater than 100 µM each time. Moreover, the TGI in [7], in test [8] and in test [9] was greater than 100 µM throughout.
As to `N#Cc1nc(Nc2ccc(Cl)cc2)sc1N`, the TGI in test [1] was 56 µM; in test [2], greater than 67.1 µM; in test [3], 45.1 µM; in test [4], greater than 76.7 µM; in test [5], 46 µM; in [6], greater than 85.7 µM. In addition, the TGI was 66.1 µM in test [7], greater than 74.7 µM in [8] and greater than 77.9 µM in test [9].
As to `N#CC(C#N)=Cc1ccc(Oc2ccccc2)cc1`, the TGI is greater than 100 µM in test [1]; greater than 100 µM in test [2]; greater than 100 µM in test [3]; 55.1 µM in test [4]; greater than 100 µM in test [5]; 47.2 µM in test [6]. Also, the TGI in test [7] was 45.3 µM; in test [8] it was greater than 100 µM; in test [9], greater than 69.5 µM.
Regarding `COc1cc2c3c(c1OCc1ccccc1)NCCC3NCC2` (stereo not given), the TGI in test [1], in test [2], in test [3], in test [4], in test [5] and in test [6] was greater than 100 µM in each case. Besides, the TGI in test [7], in [8] and in [9] was greater than 100 µM in each case.
`Cc1ccc(C)c(N2C(=O)C(=O)c3c(C)ccc(C)c32)c1`: the TGI in test [2] was greater than 100 µM; in test [3] it was 87.1 µM; in [4], greater than 100 µM; in test [5], greater than 100 µM; in test [6] it was 39.6 µM; in [7], 96.5 µM. Besides, the TGI was greater than 100 µM in test [8], greater than 100 µM in test [10] and 78.2 µM in [9].
Regarding `CC1OC(n2cc(I)c(=O)[nH]c2=O)C=CC1=O` (stereo not given), the TGI is 29.6 µM in test [1]; 72.6 µM in test [2]; 29.5 µM in test [3]; 24.6 µM in test [4]; 32.7 µM in test [5]; 30.6 µM in test [6]. Further, the TGI was 28.5 µM in [7], 35.1 µM in [8] and 27.1 µM in test [9].
For `Cc1nn(-c2ccccc2)c(C)c1/C=N/N1CCN(Cc2ccccc2)CC1`, the GI50 is greater than 100 µM in test [2]; greater than 100 µM in [3]; 28.7 µM in test [4]; 16.3 µM in test [5]; 33.5 µM in test [8]; 25.2 µM in test [10]. Moreover, the GI50 in test [9] was 38 µM. Moreover, the TGI is greater than 100 µM in test [2]; greater than 100 µM in [3]; 63 µM in test [4]; 74.4 µM in [5]; greater than 100 µM in test [8]; 96.5 µM in [10]. This compound also showed a TGI in test [9] greater than 100 µM.
With `COc1cc(CCNc2nc3cc(N)cc(N)c3nc2-c2ccccc2)cc(OC)c1`, the GI50 in test [1] was 3.95 µM; in [2] it was 3.64 µM; in [3] it was 1.93 µM; in test [4], 1.25 µM; in test [5], 2.95 µM; in test [6] it was 2 µM. Besides, the GI50 in [7] was 1.18 µM; in test [8] it was 3.25 µM; in test [9], 1.74 µM. For the same compound, the TGI in test [1] turned out to be 14.3 µM; in [2], 14.9 µM; in test [3], 3.6 µM; in test [4], 3.33 µM; in test [5] it was 9.35 µM; in [6] it was 4.05 µM. For the same compound, the TGI stood at 2.53 µM in test [7], 10.9 µM in test [8] and 3.72 µM in test [9].
`O=C1C(Cl)=C(Nc2cccc(O)c2)C(=O)N1c1ccc(Cl)cc1Cl`: the GI50 in [2] was 46.3 µM; in test [3], 12.9 µM; in test [5], 32.8 µM; in [6], 47.6 µM; in test [7], 31.6 µM; in test [8], 27.5 µM. Also, the GI50 in test [10] was 13.9 µM; in test [9], 28.4 µM. Also, the TGI in test [2] is greater than 100 µM; in test [3] it was 45 µM; in test [5] it was greater than 100 µM; in [6] it was greater than 100 µM; in test [7], 92 µM; in [8], greater than 100 µM. Further, the TGI in [10] was 38.2 µM; in test [9], greater than 100 µM.
Consider `N#CC(C(=O)C(=O)Nc1ccc(Cl)c(Cl)c1)c1ccc(Cl)cc1` (stereo not given), for which the TGI in [1], in [2], in [3], in [4], in test [5] and in test [6] was greater than 100 µM each time. The TGI in test [7] was greater than 100 µM; in [8], 96.7 µM; in test [9] it was greater than 100 µM.
`COc1ccc(C(=O)C(CC2C(=O)CC(C)(C)C(C(=O)C(=O)Nc3c(C)cccc3C)C2=O)c2ccc(OC)cc2)cc1` (stereo not given): the TGI in test [2], in [3], in test [4], in test [5], in test [6] and in test [8] was greater than 100 µM in each case. Besides, the TGI in test [10] and in test [9] was greater than 100 µM throughout.
With `CCCCCCCCCCCCCC(=O)OC1C(CO)OC(=O)C1O` (stereo not given), the TGI in [1], in test [2], in [3], in test [4], in [5] and in [6] was greater than 100 µM each time. The TGI in test [7], in test [8] and in test [9] was greater than 100 µM each time.
Take `CSC1CC2C(CC1(C)SC)C2(C)C` (stereo not given): the TGI in test [1] is greater than 100 µM; in [2] it was greater than 100 µM; in test [3], greater than 100 µM; in test [4], 58 µM; in [5] it was greater than 100 µM; in [6], greater than 100 µM. Moreover, the TGI in test [7] is greater than 100 µM; in test [8], 67 µM; in [9], greater than 100 µM.
Turning to `O=C(CC(=O)c1cccc([N+](=O)[O-])c1)C(=O)Nc1nc([N+](=O)[O-])cs1`, the TGI in test [1], in test [2], in [3], in test [4], in test [5] and in test [6] was greater than 100 µM each time. Also, the TGI in [7], in [8] and in [9] was greater than 100 µM throughout.
In the case of `COc1cc2c(cc1OC)C1(c3ccccc3)ON=C(c3ccccc3)N1CS2` (stereo not given), the TGI in [1], in [2], in test [3], in [4], in [5] and in test [6] was greater than 100 µM throughout. Further, the TGI in [7], in test [8] and in test [9] was greater than 100 µM throughout.
For `CO[C@]12CCC(=O)N1C=Cc1c2[nH]c2ccccc12`, the TGI in [1], in test [2], in test [3], in test [4], in test [5] and in [6] was greater than 100 µM each time. Further, the TGI in test [7], in [8] and in [9] was greater than 100 µM each time.
On to `CC(C)N(C(=O)C12C3C4C5C3C1(C#N)C5C42)C(C)C` (stereo not given), for which the TGI in [1], in test [2], in [3], in test [4], in test [5] and in test [6] was greater than 100 µM each time. The TGI in [7], in [8] and in test [9] was greater than 100 µM in each case.
In the case of `O=c1[nH]c(=O)n(C2OC(CO)C(O)C2O)cc1OCc1ccccc1` (stereo not given), the TGI was greater than 100 µM in test [1]; greater than 100 µM in test [2]; greater than 100 µM in test [3]; greater than 68.6 µM in test [4]; greater than 100 µM in test [5]; greater than 100 µM in test [6]. In addition, the TGI in [7], in test [8] and in test [9] was greater than 100 µM throughout.

The values above are taken from PubChem BioAssay (NCI).
